How the values were obtained:
MCF7 = assay: Cytotoxicity against human MCF7 cells after 48 hrs by MTT assay; format: cell-based; conditions: MCF7, 48 h
Entamoeba histolytica = assay: Antiamoebic activity against Entamoeba histolytica HM-1:IMSS after 72 hrs by microdilution assay; format: functional, organism-based
[1] = Cytotoxicity against human MCF7 cells assessed as cell viability up to 100 uM after 48 hrs by MTT assay; format: cell-based; conditions: read-out: Activity
[2] = Cytotoxicity against human MCF7 cells assessed as cell viability at 1.56 to 50 uM after 48 hrs by MTT assay; format: cell-based; conditions: read-out: Activity

Row | SMILES | IC50 (MCF7) | IC50 (Entamoeba histolytica) | viability at 48 h [1] | viability at 48 h, up to 50 µM [2]
1 | C/C(=N\NC(=O)COc1cccc2cccnc12)c1ccccc1 | > 100 µM | 0.03 µM | 100% | 
2 | C/C(=N\NC(=O)COc1cccc2cccnc12)c1ccc(Br)cc1 | > 100 µM | 0.04 µM | 100% | 
3 | C/C(=N\NC(=O)COc1cccc2cccnc12)c1ccc(Cl)cc1 | > 100 µM | 0.04 µM | 100% | 
4 | C/C(=N\NC(=O)COc1cccc2cccnc12)c1ccccn1 | > 100 µM | 0.05 µM | 100% | 
5 | C/C(=N\NC(=O)COc1cccc2cccnc12)c1ccco1 | > 100 µM | 0.05 µM | 100% | 
6 | C/C(=N\NC(=O)COc1cccc2cccnc12)c1cccs1 | > 100 µM | 0.08 µM | 88% | 
7 | Brc1ccc(-c2csnn2)cc1 | 68.1 µM | 0.24 µM | 68% | 
8 | Clc1ccc(-c2csnn2)cc1 | > 100 µM | 0.39 µM |  | 
9 | c1ccc(-c2csnn2)nc1 |  | 5.46 µM |  | 
10 | c1coc(-c2csnn2)c1 | 95.1 µM | 0.23 µM |  | 
11 | c1csc(-c2csnn2)c1 | 66.9 µM | 2.25 µM |  | 
12 | c1ccc(-c2c[se]nn2)cc1 |  | 4.56 µM |  | 
13 | Brc1ccc(-c2c[se]nn2)cc1 |  | 2.95 µM |  | 
14 | Clc1ccc(-c2c[se]nn2)cc1 | 57.1 µM | 0.58 µM | 57% | 66%
15 | c1ccc(-c2c[se]nn2)nc1 | 86.6 µM | 0.46 µM |  | 
16 | c1coc(-c2c[se]nn2)c1 |  | 5.72 µM |  | 
17 | c1csc(-c2c[se]nn2)c1 |  | 5.28 µM |  | 
18 | c1ccc(-c2csnn2)cc1 |  | 7.46 µM |  | 
19 | Cc1ncc([N+](=O)[O-])n1CCO [METRONIDAZOLE] | > 100 µM |  | 100% | 
